In patent US20260219274A1, “POLYOL SWEETNERS AND CARDIOVASCULAR AND THROMBOTIC EVENT RISK” (THE CLEVELAND CLINIC FOUNDATION, priority 2023, published 2026):

How the values were obtained:
[1] = system: human platelet-rich plasma; assay: Aggregometry in platelet-rich plasma; type: cell-based; conditions: for platelet responsiveness / aggregation with varying polyol level: fixed submaximal ADP or TRAP6, varying pre-incubation levels
Procedure: Aggregometry in platelet rich plasma (PRP) was performed as previously described^40 and outlined in supplemental methods.
Platelet rich plasma (PRP) was isolated as previously described.^5 Whole blood was drawn from healthy donors and anticoagulated with sodium citrate (0.109 M). PRP was prepared by centrifuging at 100×g for 10 min at 22° C. Platelet poor plasma (PPP) was obtained by additional centrifugation of the remaining blood samples at 11,000×g for 2 min. Next, platelets were counted with a hemocytometer and the platelet concentration adjusted to 2×10^8/mL using PPP. PRPs were then pre-incubated with xylitol (Catalogue #X3375-5G, Sigma, St. Louis, MO, USA) at indicated concentrations or vehicle (saline) for 30 min at 22° C. After exposure to xylitol or vehicle, PRPs were maintained in suspension with constant stirring (600 rpm) at 37° C. Subsequently, platelet aggregation was induced by adding the agonists ADP (up to 5 μM, Catalogue #384, Chronolog, Havertown, PA, US) or TRAP6 (TFLLR-NH2, up to 10 μM, Catalogue #464, Tocris, Bristol, UK). For all platelet aggregometry experiments, blood was always processed within approx. 30 minutes of collection, and isolated platelets were used within 120 minutes of isolation. When used, pairs of vehicle vs. xylitol incubated PRP were always incubated and analyzed together (beginning, middle, end of platelet prep use) and after 120 minutes post isolation, PRPs were not used anymore.
Platelet rich plasma (PRP) and platelet poor plasma (PPP) was prepared as previously described with sodium citrate (0.109 M) as anticoagulant^51. Platelets were counted and concentrations adjusted to 2×10^8/mL with PPP. PRPs were pre-incubated with erythritol (Catalogue #E7500, Sigma, St. Louis, MO, USA), glucose (Catalogue #G7021, Sigma, St. Louis, MO, USA) or 1,5-AHG (Catalogue #29874, Cayman Chemical, Ann Arbor, Michigan, USA) (at indicated concentrations) or vehicle (saline) for 30 min at 22° C. After pre-incubation PRPs were maintained in suspension with constant stirring (600 rpm) at 37° C. and platelet aggregation was initiated using ADP (up to 5 μM, Catalogue #384, Chronolog, Havertown, PA, US) or TRAP6 (TFLLR-NH2, up to […], Catalogue #464, Tocris, Bristol, UK).

washed human platelets = assay: Platelet flow cytometry assay (P-selectin, PAC-1); type: cell-based; conditions: for ADP-stimulated P-selectin surface expression / ADP-stimulated glycoprotein α2β3 (GP IIb/IIIa) activation: pre-incubation with the polyol, ADP 2 μM
Procedure: Antibody staining of washed platelets for flow cytometry was performed as described previously^41 with further information outlined in additional methods. […]
Washed platelets and antibody staining for flow cytometry was performed as described previously using sodium citrate (0.109 M) as anti-coagulant^51. Washed platelets were separated by centrifugation at 500×g for 10 min and re-suspended in modified Hank's buffered salt solution without PGE1. Final platelet suspensions (100 μL; 2×10^8 platelets/mL) were then pre-incubated with erythritol, glucose or 1,5-AHG (at indicated concentrations) for 30 min at 22° C. Platelets were then stimulated with 2 μM ADP for 10 min and incubated with PE conjugated anti-P-selectin (CD62P-PE, Catalogue #555524, BD PharMingen, San Diego, CA, USA; 2.5 μL/100 μL) or Fluorescein isothiocyanate (FITC) conjugated PAC1 (binds only to active conformation of GP IIb/IIIa, Catalogue #3 40507, BD PharMingen, San Diego, CA, USA; 5 μL/100 μL) or isotype control antibody (PE IgG isotype control, Catalogue #555749 or FITC IgM Isotype control, Catalogue #555583, BD PharMingen, San Diego, CA, USA) in the dark for 20 min. The platelet suspensions were then fixed with 100 μL of 2% paraformaldehyde. Data was acquired on a flow cytometer (FACS LSR Fortessa, BD Biosciences, Franklin Lakes, New Jersey, USA). Twenty thousand (20,000) events were collected. The data was analyzed with FACSDiva Software (v.9.0) (BD Biosciences). Platelets were gated to exclude doublets (FIG. 28) and the raw mean fluorescent intensity (MFI) of either P-selectin (CD62P) or PAC-1 was quantified.

SMILES	stimulus-dependent platelet aggregation response to ADP and TRAP6 ([1]; PRP incubated with the polyol versus vehicle, submaximal agonist)	platelet responsiveness / aggregation with varying polyol level [1]	erythritol concentration eliciting significant increase in ADP-stimulated aggregometry responses ([1]; threshold, FIG. 27) [µM]	erythritol concentration eliciting significant increase in thrombin-stimulated aggregometry responses ([1]; threshold, FIG. 27) [µM]	ADP-stimulated P-selectin surface expression (washed human platelets)	ADP-stimulated glycoprotein α2β3 (GP IIb/IIIa) activation (washed human platelets)	erythritol concentration eliciting significant stimulus-dependent enhancement in P-selectin surface expression (washed human platelets; threshold, FIG. 17) [µM]	erythritol concentration eliciting significant stimulus-dependent enhancement in activated GP IIbIIIa surface expression (washed human platelets; threshold, FIG. 17) [µM]	stimulus-dependent platelet activation and aggregation ([1]; xylitol 30 μM with sub-maximal ADP or TRAP6)	effect on PRP without agonist ([1]; xylitol 30 μM, brief incubation)
OC[C@@H](O)[C@@H](O)CO [erythritol]	significant increase	dose-dependently enhanced	18	18	dose-dependent enhancement	dose-dependent enhancement	18	4.5	–	–
OC[C@@H](O)[C@H](O)[C@@H](O)CO [xylitol]	–	dose-dependent enhancement	–	–	dose-dependent enhancement	dose-dependent enhancement	–	–	marked enhancement	no effect
